What was measured:
[1] = system: 5-HT sensitive adenylate cyclase of the liver fluke; experiment: activation of 5-HT sensitive adenylate cyclase of the liver fluke (method of R. Markstein); type: biochemical; details: adenylate cyclase stimulated by serotonin
Excerpt: A group of compounds comprises compounds which are D₂ agonists without any antagonistic activity. Another group of compounds includes those compounds which are serotonin agonists, e.g. as indicated in standard in vitro binding tests and by activation of 5-HT sensitive adenylate cyclase of the liver fluke according to the method of R.Markstein, Neurochemical Effects of Some Ergot Derivatives: A Basis for their Antiparkinson Actions. J. Neural transm 51:39, (1981).
Examples of such compounds include compound C and pergolide. Compound C, pergolide and 5-HT agonists have efficacies of 90, 80, and 100 respectively and pD₂ [10g EC₅₀] of 6.9, 6.9 and 7.7 respectively in this test on adenylate cyclase stimulated by serotonin.

[2] = system: serum prolactin; experiment: lowering basal serum prolactin levels in the male rat (prolactin secretion inhibition); type: in vivo
Excerpt: Many of the above mentioned compounds are published as prolactin secretion inhibitors, some of which are extremely potent and have long lasting activity. The potency of the compounds as prolactin secretion inhibitors can be determined in standard tests, e.g. by lowering basal serum prolactin levels in the male rat.

[3] = system: operable breast cancer; experiment: Clinical trial II: antiproliferative effect in operable breast cancer; type: in vivo, women; details: oral, 20 days, 50 to 200 ug/day/p.o.; compound A 25 µg/day days 0 to 3, 50 µg/day days 4 to 6, 75 µg/day until day 20
Excerpt: 24 to 36 women with operable breast cancer, aged less than 70 years, in whom a positive biopsy cut has been obtained at the first clinic visit are selected. The patients are not be taking any chronic medication which is known to influence serum prolactin levels. The trial is effected on a randomized double blind basis. All patients are to have baseline evaluations before beginning treatment.
The women are given an oral dose of a COMPOUND OF THE INVEN-TION or placebo for 20 days, starting on day 0. They are operated on day 10 with either breast conservation or modified radical mastectomy. Prolactin levels in plasma are measured on days 0, 6, 10, 13 and 20. Histological evaluations are performed on days 1 and 10.

[4] = 52 week toxicology studies in rats; type: in vivo; details: oral doses, 0.20 mg/kg/day

Row | Structure (SMILES) | efficacies [1] | pD₂ [10g EC₅₀] [1] | ID₅₀ mg/kg after 4 hours [2] [mg/kg] | mitotic rate [3] | toxic effects [4]
1 | CCCN1C[C@H](CSC)C[C@@H]2c3cccc4[nH]cc(c34)C[C@H]21 [pergolide, 6-n-propyl-8α-methylmercaptomethyl-ergoline-I, reference compound] | 80 | 6.9 | – | – | –
2 | CN1C[C@@H](NS(=O)(=O)N(C)C)C[C@@H]2c3cccc4c3c(cn4C)C[C@H]21 [B, 1,6-dimethyl-8α-(N,N-dimethylsulphamoylamino)-ergoline-I] | – | – | 0.003 | – | –
3 | CCCN1CC(NS(=O)(=O)N(CC)CC)CC2Cc3c(O)cccc3CC21 (stereo not drawn) [Compound A, N,N-diethyl-N′-[(3α,4aα,10aβ)-1,2,3,4,4a,5,10,10a-octahydro-6-hydroxy-1-propyl-3-benzo[g]-quinolinyl] sulfamide] | – | – | 0.03 | satisfactory results indicative of a reduced mitotic rate | no toxic effects are observed
4 | CCCN1C[C@@H](NS(=O)(=O)N(CC)CC)C[C@@H]2c3cccc4[nH]cc(c34)C[C@H]21 [Compound C, 6-n-propyl-8α-(N,N-diethylsulphamoylamino)-ergoline-I] | 90 | 6.9 | 0.001 | – | –
